# Source: patent US9187472B2 (AbbVie Inc., priority 2012, dated 2015)
# Assays:
# [1] = biological target: NAMPT (human, recombinant, C-terminally His-tagged) (Homo sapiens, UniProt P43490); assay: Time-Resolved Fluorescence Resonance Energy Transfer (TR-FRET) Binding Assay of NAMPT; settings: without substrates; 6.8 nM NAMPT, 200 nM probe, 3 hours equilibration
# Method: Determination of the utility of compounds having Formula (I) as binders to and inhibitors of NAMPT was performed using Time-Resolved Fluorescence Resonance Energy Transfer (TR-FRET) binding assays.
# Time-Resolved Fluorescence Resonance Energy Transfer (TR-FRET) Binding Assay of NAMPT
# Test compounds were serially diluted (typically 11 half log dilutions) in neat DMSO to 50× final concentrations prior to dilution with assay buffer (50 mM HEPES (NaOH), pH 7.5, 100 mM NaCl, 10 mM MgCl2, 1 mM DTT, 1% Glycerol) to 3× and 6% DMSO. Six μL were transferred to 384-well low-volume plates (Owens Corning #3673). To this, […] of a 1.5× solution containing enzyme, probe and antibody were added. Final concentrations in the 18 μL, reactions were 1× assay buffer, 2% DMSO, 6.8 nM NAMPT (human, recombinant, C-terminally His-tagged), 200 nM probe (a potent nicotinamide-competitive inhibitor conjugated to Oregon Green 488) and 1 nM Tb-anti-His antibody (Invitrogen # PV5895). Reactions were equilibrated at room temperature for 3 hours prior to reading on an Envision multi-label plate reader (Perkin Elmer; Ex=337 nm, Em=520 and 495 nm). Time-resolved FRET ratios (Em520/Em495) were normalized to controls, plotted as a function of compound concentration and fit with the four-parameter logistic equation to determine IC50s.
# NAMPT = NAMPT (Homo sapiens, UniProt P43490); assay: TR-FRET Binding Assay of NAMPT with PRPP; settings: with 200 μM PRPP and 2.5 mM ATP; 2 nM NAMPT, 2 nM probe, 16 hours equilibration
# NAMPT, sequence (P43490 whole entry): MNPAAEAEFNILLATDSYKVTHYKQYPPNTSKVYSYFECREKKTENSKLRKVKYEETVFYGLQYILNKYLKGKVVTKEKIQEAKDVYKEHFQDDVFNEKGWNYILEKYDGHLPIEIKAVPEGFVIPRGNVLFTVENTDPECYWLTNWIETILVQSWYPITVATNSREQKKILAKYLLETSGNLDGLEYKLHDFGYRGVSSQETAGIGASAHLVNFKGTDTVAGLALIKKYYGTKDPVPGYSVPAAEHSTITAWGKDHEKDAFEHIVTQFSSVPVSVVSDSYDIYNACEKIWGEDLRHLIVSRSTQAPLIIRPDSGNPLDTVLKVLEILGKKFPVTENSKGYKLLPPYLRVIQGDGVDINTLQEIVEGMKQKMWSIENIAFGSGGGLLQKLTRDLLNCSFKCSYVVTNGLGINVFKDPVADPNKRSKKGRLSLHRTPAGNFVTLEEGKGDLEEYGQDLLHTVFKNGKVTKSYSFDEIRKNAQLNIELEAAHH
# Method: Time-Resolved Fluorescence Resonance Energy Transfer (TR-FRET) Binding Assay of NAMPT with PRPP
# Compound handling and data processing were identical to the assay in the absence of substrates (above). Final concentrations were 1× assay buffer, 2% DMSO, 2 nM NAMPT, 2 nM probe, 1 nM Tb-anti-His antibody (Invitrogen # PV5895), 200 μM PRPP and 2.5 mM ATP. Reactions were equilibrated for 16 hours prior to measurement to allow for potential enzymatic modification of test compounds.
# PC3 cells = assay: NAMPT Cell Proliferation Assay; format: cell-based; settings: 5 days incubation, cell viability by Cell Titer Glo
# How it was run: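 Following overnight attachment in RPMI with 10% heat-inactivated FBS, PC3 cells at 500 per well receive compounds spanning 10 μM down to 1×10^−5 μM. Growth is assessed by luminescent viability read after 5 days.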
# NAMPT (human, recombinant, C-terminally His-tagged), sequence (P43490 whole entry): as above
SMILES,IC50 [1],IC50 (NAMPT),"IC50 (PC3 cells; Homo sapiens, PC-3, 120 h)",IC50 (PC3 cells)
"O=C(NCc1ccc2nccn2c1)c1ccc(-c2cnn(CC3CCCCC3)c2)s1 [Example 179, 5-[1-(cyclohexylmethyl)-1H-pyrazol-4-yl]-N-(imidazo[1,2-a]pyridin-6-ylmethyl)thiophene-2-carboxamide]",58.1 nM,0.445 nM,2.18 nM,–
"O=C(Nc1ccc(C(=O)NCCc2ccccc2)cc1)Nc1ccc2nccn2c1 [Example 4, 4-[(imidazo[1,2-a]pyridin-6-ylcarbamoyl)amino]-N-(2-phenylethyl)benzamide]",413 nM,0.516 nM,935 nM,–
"O=C(NCc1ccc2nccn2c1)c1ccc(C(=O)NC[C@@H]2CCOC2)cc1 [Example 359, N-(imidazo[1,2-a]pyridin-6-ylmethyl)-N′-[(3S)-tetrahydrofuran-3-ylmethyl]benzene-1,4-dicarboxamide]",> 10000 nM,2.5 nM,8770 nM,–
"CC(C)Cn1cc(-c2ccc(C(=O)NCc3cn4ccnc4cn3)s2)cn1 [Example 754, N-(imidazo[1,2-a]pyrazin-6-ylmethyl)-5-[1-(2-methylpropyl)-1H-pyrazol-4-yl]thiophene-2-carboxamide]",4.92 nM,0.51 nM,1.25 nM,–
"O=C(NCc1ccn2ccnc2c1)Nc1ccc(OC2CCN(C(=O)C3CCOCC3)CC2)cc1 [Example 450, 1-(imidazo[1,2-a]pyridin-7-ylmethyl)-3-(4-{[1-(tetrahydro-2H-pyran-4-ylcarbonyl)piperidin-4-yl]oxy}phenyl)urea]",422 nM,0.244 nM,70.1 nM,–
"O=C(NCc1ccn2ccnc2c1)c1cnc(N2C(=O)OC[C@@H]2COCc2ccccc2)s1 [Example 188, 2-{(4S)-4-[(benzyloxy)methyl]-2-oxo-1,3-oxazolidin-3-yl}-N-(imidazo[1,2-a]pyridin-7-ylmethyl)-1,3-thiazole-5-carboxamide]",> 10000 nM,5.09 nM,6290 nM,–
"O=C(NCc1ccn2ccnc2c1)c1ccc(C2CCN(C(=O)c3cccc(OC(F)(F)F)c3)C2)cc1 (stereo not drawn) [Example 618, N-(imidazo[1,2-a]pyridin-7-ylmethyl)-4-{1-[3-(trifluoromethoxy)benzoyl]pyrrolidin-3-yl}benzamide]",500 nM,0.751 nM,125 nM,–
"O=C(NCc1ccn2ccnc2c1)Nc1ccc(C2CCN(C(=O)c3ccccc3)CC2)cc1 [Example 229, 1-[4-(1-benzoylpiperidin-4-yl)phenyl]-3-(imidazo[1,2-a]pyridin-7-ylmethyl)urea]",13.6 nM,0.398 nM,1.06 nM,–
"O=C(NCc1ccc2nccn2c1)c1ccc(C2=CCN(C(=O)c3ccccc3)CC2)cc1 [Example 104, 4-(1-benzoyl-1,2,3,6-tetrahydropyridin-4-yl)-N-(imidazo[1,2-a]pyridin-6-ylmethyl)benzamide]",135 nM,2 nM,8.46 nM,–
"CC(C)Cn1cc(-c2ccc(C(=O)NCc3ccc4nccn4c3)cc2)cn1 [Example 119, N-(imidazo[1,2-a]pyridin-6-ylmethyl)-4-[1-(2-methylpropyl)-1H-pyrazol-4-yl]benzamide]",942 nM,0.783 nM,146 nM,–
"CC(C)(C)OC(=O)Nc1ccc(C(=O)NCc2ccn3ccnc3c2)cc1 [Example 207, tert-butyl {4-[(imidazo[1,2-a]pyridin-7-ylmethyl)carbamoyl]phenyl}carbamate]",1510 nM,0.282 nM,739 nM,–
"Cn1ccc(C(=O)N2CC(c3ccc(C(=O)NCc4ccn5ccnc5c4)cc3)C2)n1 [Example 642, N-(imidazo[1,2-a]pyridin-7-ylmethyl)-4-{1-[(1-methyl-1H-pyrazol-3-yl)carbonyl]azetidin-3-yl}benzamide]",454 nM,0.532 nM,94.9 nM,–
"CC(C)OCC(=O)Nc1ccc(NC(=O)NCc2ccc3nccn3c2)cc1 [Example 276, N-(4-{[(imidazo[1,2-a]pyridin-6-ylmethyl)carbamoyl]amino}phenyl)-2-(propan-2-yloxy)acetamide]",107 nM,0.468 nM,38.1 nM,–
"O=C(NCc1ccn2ccnc2c1)c1ccc(C2CCN(C(=O)c3ccno3)CC2)s1 [Example 264, N-(imidazo[1,2-a]pyridin-7-ylmethyl)-5-[1-(1,2-oxazol-5-ylcarbonyl)piperidin-4-yl]thiophene-2-carboxamide]",40.4 nM,0.412 nM,6.69 nM,–
"COCCC(=O)N(Cc1ccc(C#N)cc1)c1ncc(C(=O)NCc2ccn3ccnc3c2)s1 [Example 57, 2-[(4-cyanobenzyl)(3-methoxypropanoyl)amino]-N-(imidazo[1,2-a]pyridin-7-ylmethyl)-1,3-thiazole-5-carboxamide]",5.8 nM,–,5.76 nM,–
"O=C(NCc1ccn2ccnc2c1)c1ccc(-c2cnn(C3CCOCC3)c2)s1 [Example 410, N-(imidazo[1,2-a]pyridin-7-ylmethyl)-5-[1-(tetrahydro-2H-pyran-4-yl)-1H-pyrazol-4-yl]thiophene-2-carboxamide]",20.7 nM,0.169 nM,–,–
"N#Cc1ccc(CC(=O)N2CCC(c3ccc(NC(=O)NCc4ccn5ccnc5c4)cc3)CC2)cc1 [Example 1050, 1-(4-{1-[(4-cyanophenyl)acetyl]piperidin-4-yl}phenyl)-3-(imidazo[1,2-a]pyridin-7-ylmethyl)urea]",–,–,23.4 nM,–
"Cc1nc(C(=O)N2CCC(c3ccc(C(=O)NCc4ccn5ccnc5c4)cc3)CC2)c2n1CCCC2 [Example 1099, Example 1099 N-(imidazo[1,2-a]pyridin-7-ylmethyl)-4-{1-[(3-meth-5,6,7,8-tetrahydroimidazo[1,5-a]pyridin-1-yl)carbonyl]piperidin-4-yl}benzamide]",–,–,–,15.6 nM
"CCc1ccc(C(=O)N2CCC(c3ccc(C(=O)NCc4ccn5ccnc5c4)cc3)CC2)nc1 [Example 1088, 4-{1-[(5-ethylpyridin-2-yl)carbonyl]piperidin-4-yl}-N-(imidazo[1,2-a]pyridin-7-ylmethyl)benzamide]",–,–,34.4 nM,–
"O=C(NCc1cn2ccnc2cn1)c1ccc(C2CCN(C(=O)c3ccc(F)cc3)CC2)s1 [Example 828, 5-[1-(4-fluorobenzoyl)piperidin-4-yl]-N-(imidazo[1,2-a]pyrazin-6-ylmethyl)thiophene-2-carboxamide]",–,–,6.44 nM,–
"N#Cc1ccc(CC(=O)N2CCC(c3ccc(C(=O)NCc4ccn5ccnc5c4)cc3)CC2)cc1 [Example 998, 4-{1-[(4-cyanophenyl)acetyl]piperidin-4-yl}-N-(imidazo[1,2-a]pyridin-7-ylmethyl)benzamide]",–,–,123 nM,–
"O=C(Cc1ccc2nccn2c1)Nc1ccc(C2CCN(C(=O)c3ccccc3F)CC2)cc1 [Example 863, N-{4-[1-(2-fluorobenzoyl)piperidin-4-yl]phenyl}-2-(imidazo[1,2-a]pyridin-6-yl)acetamide]",–,–,0.642 nM,–
"CC(Oc1cccc(F)c1)C(=O)N1CCC(c2ccc(NC(=O)NCc3ccn4ccnc4c3)cc2)CC1 (stereo not drawn) [Example 1065, 1-(4-{1-[2-(3-fluorophenoxy)propanoyl]piperidin-4-yl}phenyl)-3-(imidazo[1,2-a]pyridin-7-ylmethyl)urea]",–,–,1.43 nM,–
"O=C(Cc1ccc2nncn2c1)Nc1ccc(C2CCN(C(=O)c3ccccc3F)CC2)cc1 [Example 1162, N-{4-[1-(2-fluorobenzoyl)piperidin-4-yl]phenyl}-2-([1,2,4]triazolo[4,3-a]pyridin-6-yl)acetamide]",–,–,61.8 nM,–
"CC(C)(C)Cn1cc(-c2ccc(C(=O)NCc3ccn4ccnc4c3)s2)cn1 [Example 883, 5-[1-(2,2-dimethylpropyl)-1H-pyrazol-4-yl]-N-(imidazo[1,2-a]pyridin-7-ylmethyl)thiophene-2-carboxamide]",–,–,0.22 nM,–
"CC(C(=O)N1CCC(c2ccc(C(=O)NCc3ccn4ccnc4c3)cc2)CC1)c1ccccc1 (stereo not drawn) [Example 926, N-(imidazo[1,2-a]pyridin-7-ylmethyl)-4-[1-(2-phenylpropanoyl)piperidin-4-yl]benzamide]",–,–,9.69 nM,–
"C/C=C(\C)C(=O)N1CCC(c2ccc(NC(=O)NCc3ccn4ccnc4c3)cc2)CC1 [Example 955, 1-(imidazo[1,2-a]pyridin-7-ylmethyl)-3-(4-{1-[(2E)-2-methylbut-2-enoyl]piperidin-4-yl}phenyl)urea]",–,–,2.56 nM,–
